From patent publication US20240239790A1, “7-Morpholino-1,6-Naphthyridin-5-yl Derivatives and Pharmaceutical Compositions Thereof Useful as DNA-PK Inhibitor” (adMare Therapeutics Society, priority 2021, published 2024)
Like-named read-outs stand apart in the source and are kept apart here.

Tests used:
FaDu tumour xenograft = assay: Clonogenic Survival, FaDu tumour xenograft-bearing Rag2M mice, compound ± radiation (CS-ER); format: in vivo, mouse; conditions: 30 mpk + 8 Gy
Protocol: FaDu tumour xenograft-bearing Rag2M mice were treated with single administrations of test compounds at indicated doses±radiation as indicated, at time 0.
Mice were irradiated at 1 h post compound administration (unless otherwise indicated), with 300 KV X-rays and a 10 mA current from a Precision XRAD 300 machine (USA) with a beam-hardening filter (2 mm Al+0.25 mm Cu+0.75 mm Sn) and an adjustable site to specimen distance (SSD) at a dose of 8-10 Gy, delivered at a rate of ˜1.05 Gy/min.
Mice were terminated at times after irradiation as indicated, and tumour tissues excised. A portion of tumour approximately 300-500 mg was briefly minced using sterile scissors and placed in a pre-weighed gentleMACS C tube (Miltenyi Biotec cat #130-093-237) and weighed with combined tumour+tube mass recorded. A 5 mL aliquot of enzyme cocktail comprising of trypsin/DNase/collagenase/EDTA-Na2 in PBS (1 mg/ml trypsin+0.26 mg/ml DNase+0.21 mg/ml collagenase+2 mM EDTA-Na2) was added to the tube, which is then run on the gentleMACS Dissociator disaggregation system. Tubes were then incubated at 37° C. and continually rotated for 20 min before again running on the gentleMACS Dissociator program. Samples were then diluted with 5 ml MEM medium containing 5% FBS and filtered (Falcon cell strainer 100 μm, cat #352360). After centrifugation (1100 rpm for 6 minutes at 4° C.) supernatant was aspirated and the cells resuspended in 4 ml cold growth medium (MEM+10% FBS)+50 ul DNase (5 mg/ml DNase solution). Cell numbers were counted from the same cell solution using a hemacytometer. Appropriate dilutions (control: 10,000 cells/ml; 8Gy: 400,000 cells/ml; drug+radiation treated; 500,000 cells/ml) were made and cells then plated in triplicate: control: 100 μl and 300 μl (1000 and 3000 cells/6 cm tissue culture plate); 8Gy: 30 μl, 105 μl and 350 μl (12000, 42000 cells/6 cm plates and 140000 cells/10 cm plate); drug+8Gy: 70 μl, 300p, 1.2 ml (35000 and 150000 cells/6 cm plates and 600000 cells/10 cm plates—only duplicate). Plates were incubated at 37° C. (in a 5% CO2, 5% O2 and balance N2 environment) for 14 days. For a final and accurate automated live-cell counting a solution of Hoechst33342 (0.01 mg/ml)+Propidium Iodide (0.004 mg/ml) in 0.9% saline was mixed with an appropriate cell number dilution of the samples in 96 well plates (50 ul staining solution+50 ul cell suspension of 10000 cells/ml) and images are taken of the wells and cell numbers are calculated by a computer program.
After 14 days plates were removed from the incubator, rinsed with PBS and stained with cold 2 g/L Malachite green oxalate salt solution (Sigma-Aldrich, cat #M6880) for 30 minutes at room temperature. Plates were rinsed with distilled water and dried. Pictures were obtained of the plates and colonies consisting of 50 or more cells were counted using a Stuart Scientific colony counter.
All plates with colonies were analyzed except when colony numbers were so high that the edges of individual colonies could not be determined accurately. Plating efficiency (PE) of each tumour sample was calculated first: PE is a ratio of the number of colonies to the number of cells seeded (sum of all the colonies countable in all the plates of the same sample divided by the sum of cells plated in the same plates). The PE of control tumours was averaged for the calculation of surviving fraction (SF): SF is based on the number of colonies formed in drug and/or radiation treated cells relative to that of untreated control (PE of treated tumor sample divided by PE of control). All treated data points were compared separately to the average of the controls. Finally a Clonogenic Survival Enhancement Ratio (CS-ER) was calculated: the SF of irradiated control groups were divided by the SF of treatment groups to determine treatment group-specific CS-ER values, and these were assigned scores based on defined response ranges: values>6=A, 4-6=B, <4=C.

[1] = Pharmacokinetic study in mice (IV and PO), plasma; format: in vivo, mouse; conditions: for AUC(0-t) / half-life / AUC(0-inf) / Cmax / Cmax at 5 min: female, C57BL/6; for AUC(0-t) / half-life / AUC(0-inf) / Cmax / AUC—% Extrap—obs / Cl_obs / Vz_obs / Cmax at 5 min / AUC_% Extrap_obs: mouse plasma; for Cmax: read-out: Cmax (5 min); for Rsq: Mouse Plasma, fit of NCA
Protocol: Pharmacokinetic analysis of compounds was conducted following bolus intravenous (IV) or bolus oral (PO) gavage in mice. Female mice (C57BL/6) in the 17-26 g range were weighed, and then administered an individually prescribed dose volume based on body weight of formulated compound via the intravenous (IV; tail vein) or oral gavage (PO) route (IV 5 mL/kg; PO 10 mL/kg). At selected timepoints post administration, blood was collected into vials with anticoagulant, processed for plasma by centrifugation, and then kept frozen ([…]) until analysis.
The in-vivo study plasma samples were analyzed using Ultra Performance Liquid Chromatography (UPLC) with tandem mass spectrometry (MS/MS) detection in multiple reaction monitoring (MRM) mode. A generic bioanalytical method involving plasma sample extraction and cleanup by protein precipitation with acetonitrile was used followed by UPLC-MS/MS analysis.
A brief example of a generic bioanalytical UPLC-MS/MS method used for analysis of compounds in the in-vivo study plasma samples is as follows. Plasma samples were spiked with internal standard prior to extraction and cleanup by protein precipitation with ice cold acetonitrile containing 0.1% (v/v) ammonium hydroxide at a ratio of 3:1 (solvent:plasma) and centrifuged at 18213 rcf for 15 minutes at 4° C. to pellet precipitates. Aliquots of supernatants were transferred to a 96-well plate and evaporated to dryness at 40° C. under a stream of nitrogen gas. Samples were reconstituted in 50:50 acetonitrile/10 mM ammonium acetate buffer pH 8, mixed thoroughly and analyzed using Ultra Performance Liquid Chromatography (UPLC) with tandem mass spectrometry (MS/MS) detection in multiple reaction monitoring (MRM) mode. Matrix-matched calibration standards and quality control (QC) samples were prepared in naïve C57Bl/6 mouse plasma. The UPLC column used was Waters Acquity UPLC BEH C18 1.7 um, 2.1 mm×50 mm (with guard column). The UPLC mobile phase consisted of: Mobile phase A: 10 mM ammonium acetate in Water pH 8, and Mobile phase B: Acetonitrile. Separation was accomplished with a linear gradient of 5% mobile phase B to 95% mobile phase B in 2 min, and a flow rate of 0.35 mL/min. The MS/MS data acquisition was accomplished using 3 MRM Transitions in ESI+ mode. Parent ion mass 508.37 m/z-to-Daughter ions (m/z) 117.05, 232.13 and 270.22. The quantitation of concentrations in test samples was achieved by matrix-matched calibration with normalization using an internal standard. Data acquisition and analysis were performed using Waters MassLynx software with TargetLynx application manager.
Estimation of PK parameters was performed using independent noncompartmental model method by PHOENIX WinNonlin software.

Row | AUC(0-t) ([1]; IV, 3 mg/kg) [ng·h/mL] | half-life ([1]; IV, 3 mg/kg) [h] | AUC(0-t) ([1]; PO, 10 mg/kg) [ng·h/mL] | half-life ([1]; PO, 10 mg/kg) [h] | Cl_obs ([1]; IV, 3 mg/kg) [mL/min/kg] | Vz_obs ([1]; IV, 3 mg/kg) [L/kg] | Cl_obs ([1]; PO, 10 mg/kg) [mL/min/kg] | Vz_obs ([1]; PO, 10 mg/kg) [L/kg] | SMILES | CS-ER Range Score (FaDu tumour xenograft; 2 h) | CS-ER Range Score (FaDu tumour xenograft; 4 h) | other results
1 | 7960 | 1.67 | 18200 | 2.17 | 6.1168 | 0.88515 | 9.1343 | 1.71597 | O=C(COc1cnc(N[C@H]2CC[C@@H](Oc3nc(N4CCOCC4)cc4ncccc34)CC2)nc1)N1CCC1 [Compound 75, 1-(Azetidin-1-yl)-2-((2-(((1s,4s)-4-((7-morpholino-1,6-naphthyridin-5-yl)oxy)cyclohexyl)amino)pyrimidin-5-yl)oxy)ethan-1-one] | B B (4-6=B) | B B (4-6=B) | AUC(0-inf) ([1]; IV, 3 mg/kg, read-out: AUCINF—obs): 8170 ng·h/mL; Cmax ([1]; IV, 3 mg/kg): 6020 ng/mL; AUC(0-inf) ([1]; PO, 10 mg/kg, read-out: AUCINF—obs): 18200 ng·h/mL; Cmax ([1]; PO, 10 mg/kg): 5590 ng/mL; AUC—% Extrap—obs ([1]; IV, 3 mg/kg): 2.63%; AUC—% Extrap—obs ([1]; PO, 10 mg/kg): 0.07%; F ([1]; mouse, PO, 10 mg/kg): 69%
2 | 5210 | 2.2 | 12600 | 2.05 | 9.3625 | 1.7849 | 13.265 | 2.35641 | O=C(COc1cnc(N[C@H]2CC[C@@H](Oc3nc(N4CCOCC4)cc4ncccc34)CC2)nc1)N1CCOCC1 [Compound 61, 1-Morpholino-2-((2-(((1s,4s)-4-((7-morpholino-1,6-naphthyridin-5-yl)oxy)cyclohexyl)amino)pyrimidin-5-yl)oxy)ethan-1-one] | C (<4=C) | B (4-6=B) | Rsq ([1]; IV, 3 mg/kg): 0.97; Rsq ([1]; PO, 10 mg/kg): 0.93; F ([1]; Mouse, PO 10 mg/kg vs IV 3 mg/kg): 72%; Cmax at 5 min ([1]; IV, 3 mg/kg): 4900 ng/mL; AUC(0-inf) ([1]; IV, 3 mg/kg, read-out: AUCINF_obs): 5340 ng·h/mL; Cmax at 5 min ([1]; PO, 10 mg/kg): 3510 ng/mL; AUC(0-inf) ([1]; PO, 10 mg/kg, read-out: AUCINF_obs): 12600 ng·h/mL; AUC_% Extrap_obs ([1]; IV, 3 mg/kg): 2.45%; AUC_% Extrap_obs ([1]; PO, 10 mg/kg): 0.05%
